Values quoted from earlier work, collected in US20240358791A1, “PEPTIDES AND METHODS OF TREATING DYSTROPHY-RELATED DISORDERS USING THE SAME” (Prince Biotech, LLC, priority 2017, published 2024).

Conditions: IV infusion with radiation; xerostomia treatment (Kouvaria et al 2007)

**Q.** For `NCCCNCCSP(=O)(O)O` [Amifostine], which side effects is on record?
**A.** serious side effects including fatal skin reaction
